Legend:
Type in all cases: in vivo
Matricaria inodora [1] = experiment: Pre-emergence herbicidal action, MATIN; conditions: dosage 320 g/ha, scored visually after 3 weeks vs untreated controls
In short: (§1)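 Weed seeds were laid out in sandy loam and covered with soil, then the soil surface was treated with an aqueous suspension or emulsion of the formulated compound containing 0.2% wetting agent. Pots stayed in the greenhouse for 3 weeks before damage was rated visually against untreated plants.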

Alopecurus myosuroides = experiment: Pre-emergence herbicidal action, ALOMY
In short: as §1

Amaranthus retroflexus [2] = experiment: Post-emergence herbicidal action, AMARE; conditions: 80 g/ha; for herbicidal activity AMARE: Table D
In short: (§2)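 Visual percent activity relative to untreated controls, assessed about 3 weeks after foliar treatment, where 0% equals control growth and 100% equals death. Compounds, as wettable powders or emulsion concentrates, are sprayed onto one-leaf-stage plants in sandy loam.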

Matricaria inodora [3] = experiment: Post-emergence herbicidal action, MATIN
Experimental: (§3) Seeds of monocotyledonous and dicotyledonous weed and crop plants are laid out in sandy loam soil in wood-fiber pots, covered with soil and cultivated in a greenhouse under good growth conditions. 2 to 3 weeks after sowing, the test plants are treated at the one-leaf stage. The compounds of the invention, formulated in the form of wettable powders (WP) or as emulsion concentrates (EC), are then sprayed onto the green parts of the plants in the form of an aqueous suspension or emulsion at a water application rate equating to […], with addition of 0.2% wetting agent. After the test plants have been left to stand in the greenhouse under optimal growth conditions for about 3 weeks, the action of the preparations is assessed visually in comparison to untreated controls (herbicidal action in percent (%): 100% activity=the plants have died, 0% activity=like control plants). […] At the same time, inventive compounds leave Gramineae crops such as barley, wheat, rye, millet/sorghum, corn or rice virtually undamaged when applied post-emergence, even at high active compound dosages. In addition, some substances are also harmless to dicotyledonous crops such as soya, cotton, oilseed rape, sugar beet or potatoes. Some of the compounds according to the invention have high selectivity and are therefore suitable for controlling unwanted vegetation in agricultural crops by the post-emergence method. The data of Tables C and D below illustrate, in an exemplary manner, the […] herbicidal action of the compounds according to the invention, the herbicidal activity being stated in percent.
(§4) For comparison, the herbicidal activity of numerous compounds according to the invention was tested with the structurally closest compounds known from the documents WO 2011/035874, WO 2012/028579 and WO 2012/126932, by the pre- and post-emergence method.

Setaria viridis [4] = experiment: Pre-emergence herbicidal action, SETVI; conditions: for herbicidal activity SETVI: dosage 320 g/ha, scored visually after 3 weeks vs untreated controls
In short: as §1

Veronica persica [5] = experiment: Pre-emergence herbicidal action, VERPE; conditions: comparison with WO 2011035874, Table H
Description: (§5) 1. Pre-Emergence Herbicidal Action Against Harmful Plants Seeds of monocotyledonous and dicotyledonous weed plants and crop plants are laid out in sandy loam soil in wood-fiber pots and covered with soil. The compounds of the invention, formulated in the form of wettable powders (WP) or as emulsion concentrates (EC), are then applied to the surface of the covering soil in the form of an aqueous suspension or emulsion at a water application rate equating to […], with addition of 0.2% wetting agent. After the treatment, the pots are placed in a greenhouse and kept under good growth conditions for the trial plants. The damage to the test plants is scored visually after a test period of 3 weeks by comparison with untreated controls (herbicidal activity in percent (%): 100% activity=the plants have died, 0% activity=like control plants).
as §4

Polygonum convolvulus = experiment: Pre-emergence herbicidal action, POLCO
Description: as §5, §4

Amaranthus retroflexus [6] = experiment: Pre-emergence herbicidal action, AMARE; conditions: for Herbicidal efficacy against AMARE: comparison with WO 2011035874, Table H; for herbicidal activity AMARE: dosage 320 g/ha, scored visually after 3 weeks vs untreated controls
In short: as §1

Cyperus serotinus = experiment: Pre-emergence herbicidal action, CYPES; conditions: for herbicidal activity CYPES: dosage 320 g/ha, scored visually after 3 weeks vs untreated controls
In short: as §1

Stellaria media [7] = experiment: Post-emergence herbicidal action, STEME; conditions: 80 g/ha; for Herbicidal activity STEME: Table D
In short: as §2

Abutilon theophrasti [8] = experiment: Pre-emergence herbicidal action, ABUTH; conditions: for Herbicidal efficacy against ABUTH: comparison with WO 2011035874, Table G; for herbicidal activity ABUTH: dosage 320 g/ha, scored visually after 3 weeks vs untreated controls
In short: as §1

Avena fatua [9] = experiment: Pre-emergence herbicidal action, AVEFA
In short: as §1

Abutilon theophrasti [10] = experiment: Post-emergence herbicidal action, ABUTH; conditions: 80 g/ha; for herbicidal activity ABUTH: Table D
In short: as §2

Veronica persica [11] = experiment: Post-emergence herbicidal action, VERPE
Experimental: as §3, §4

Pharbitis purpureum = experiment: Post-emergence herbicidal action, PHBPU; conditions: 80 g/ha; for Herbicidal activity PHBPU: Table D
In short: as §2

ECHCG [12] = experiment: Pre-emergence herbicidal action, ECHCG; conditions: comparison with WO 2011035874, Table G
Description: as §5

Viola tricolor [13] = experiment: Post-emergence herbicidal action, VIOTR; conditions: for herbicidal activity VIOTR: Table D
In short: as §2

Viola tricolor [14] = experiment: Pre-emergence herbicidal action, VIOTR; conditions: for herbicidal activity VIOTR: dosage 320 g/ha, scored visually after 3 weeks vs untreated controls
In short: as §1

Stellaria media [15] = experiment: Pre-emergence herbicidal action, STEME; conditions: for Herbicidal efficacy against STEME: comparison with WO 2011035874, Table H; for Herbicidal activity STEME: dosage 320 g/ha, scored visually after 3 weeks vs untreated controls
In short: as §1

Avena fatua [16] = experiment: Post-emergence herbicidal action, AVEFA
In short: as §2

ECHCG [17] = experiment: Post-emergence herbicidal action, ECHCG; conditions: 80 g/ha, Table C
In short: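 Weed and crop plants grown in sandy loam in the greenhouse, treated at the one-leaf stage 2–3 weeks after sowing. Damage scored visually after about 3 weeks vs untreated controls (0% = control, 100% = dead).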

Setaria viridis [18] = experiment: Post-emergence herbicidal action, SETVI
In short: as §2

LOLMU = experiment: Pre-emergence herbicidal action, LOLMU; conditions: dosage 80 g/ha, Table L
[19] = 80 g/ha, comparison with WO 2011035874, Table G
[20] = 320 g/ha, comparison with WO 2011035874, Table G
[21] = comparison with WO 2011035874, Table E
[22] = 80 g/ha, comparison with WO 2011035874, Table E
[23] = 80 g/ha, comparison with WO2011035874, Table F
[24] = 80 g/ha, comparison with WO 2011035874, Table H
[25] = 320 g/ha, comparison with WO 2011035874, Table H
[26] = comparison with WO2011035874, Table F
[27] = dosage 320 g/ha, scored visually after 3 weeks vs untreated controls

CSc1c(C(F)F)ccc(C(=O)Nc2nonc2C)c1C [Example 5-1]
herbicidal activity MATIN (Matricaria inodora [1]): 100%
Herbicidal efficacy against ALOMY (Alopecurus myosuroides; [19]): 30%
Herbicidal efficacy against ALOMY (Alopecurus myosuroides; [20]): 40%
herbicidal activity AMARE (Amaranthus retroflexus [2]): 80%
Herbicidal efficacy against AMARE (Amaranthus retroflexus [2]; [21]): 80%
Herbicidal efficacy against MATIN (Matricaria inodora [3]; [22]): 40%
Herbicidal efficacy against MATIN (Matricaria inodora [3]; [23]): 40%
Herbicidal efficacy against SETVI (Setaria viridis [4]; [19]): 80%
Herbicidal efficacy against SETVI (Setaria viridis [4]; [20]): 100%
herbicidal activity SETVI (Setaria viridis [4]): 100%
Herbicidal efficacy against VERPE (Veronica persica [5]; 80 g/ha): 100%
Herbicidal efficacy against VERPE (Veronica persica [5]; 320 g/ha): 100%
Herbicidal efficacy against POLCO (Polygonum convolvulus; [24]): 80%
Herbicidal efficacy against POLCO (Polygonum convolvulus; [25]): 100%
Herbicidal efficacy against AMARE (Amaranthus retroflexus [6]; 80 g/ha): 100%
Herbicidal efficacy against AMARE (Amaranthus retroflexus [6]; 320 g/ha): 100%
herbicidal activity AMARE (Amaranthus retroflexus [6]): 100%
Herbicidal efficacy against CYPES (Cyperus serotinus; [19]): 50%
Herbicidal efficacy against CYPES (Cyperus serotinus; [20]): 80%
herbicidal activity CYPES (Cyperus serotinus): 80%
Herbicidal activity STEME (Stellaria media [7]): 100%
Herbicidal efficacy against STEME (Stellaria media [7]; [21]): 100%
Herbicidal efficacy against STEME (Stellaria media [7]; [26]): 100%
Herbicidal efficacy against ABUTH (Abutilon theophrasti [8]; 80 g/ha): 100%
Herbicidal efficacy against ABUTH (Abutilon theophrasti [8]; 320 g/ha): 100%
herbicidal activity ABUTH (Abutilon theophrasti [8]): 100%
Herbicidal efficacy against AVEFA (Avena fatua [9]; [19]): 30%
Herbicidal efficacy against AVEFA (Avena fatua [9]; [20]): 60%
herbicidal activity ABUTH (Abutilon theophrasti [10]): 100%
Herbicidal efficacy against ABUTH (Abutilon theophrasti [10]; [21]): 100%
Herbicidal efficacy against ABUTH (Abutilon theophrasti [10]; [26]): 100%
Herbicidal efficacy against VERPE (Veronica persica [11]; [22]): 100%
Herbicidal activity PHBPU (Pharbitis purpureum): 90%
Herbicidal efficacy against PHBPU (Pharbitis purpureum; [21]): 90%
Herbicidal efficacy against PHBPU (Pharbitis purpureum; [26]): 90%
Herbicidal efficacy against ECHCG (ECHCG [12]; 80 g/ha): 80%
Herbicidal efficacy against ECHCG (ECHCG [12]; 320 g/ha): 100%
herbicidal activity VIOTR (Viola tricolor [13]; 80 g/ha): 100%
Herbicidal efficacy against VIOTR (Viola tricolor [13]; [22]): 100%
Herbicidal efficacy against VIOTR (Viola tricolor [13]; [23]): 100%
Herbicidal efficacy against VIOTR (Viola tricolor [14]; [24]): 100%
Herbicidal efficacy against VIOTR (Viola tricolor [14]; [25]): 100%
herbicidal activity VIOTR (Viola tricolor [14]): 100%
Herbicidal efficacy against STEME (Stellaria media [15]; 80 g/ha): 80%
Herbicidal efficacy against STEME (Stellaria media [15]; 320 g/ha): 90%
Herbicidal activity STEME (Stellaria media [15]): 90%

Cc1nnc(NC(=O)c2ccc(C(F)F)c([S+](C)[O-])c2C)o1 (stereo not drawn) [Example 7-2]
herbicidal activity MATIN (Matricaria inodora [1]): 90%
herbicidal activity AVEFA (Avena fatua [16]; 80 g/ha, Table C): 90%
Herbicidal efficacy against AVEFA (Avena fatua [16]; dosage 20 g/ha, Table M): 70
Herbicidal efficacy against ALOMY (Alopecurus myosuroides; dosage 80 g/ha, Table L): 80
herbicidal activity ALOMY (Alopecurus myosuroides; [27]): 90%
herbicidal activity AMARE (Amaranthus retroflexus [2]): 100%
Herbicidal efficacy against MATIN (Matricaria inodora [3]; dosage 20 g/ha, Table M): 70
Herbicidal efficacy against SETVI (Setaria viridis [4]; dosage 80 g/ha, Table L): 90
herbicidal activity SETVI (Setaria viridis [4]): 100%
Herbicidal efficacy against POLCO (Polygonum convolvulus; dosage 80 g/ha, Table L): 30
herbicidal activity AMARE (Amaranthus retroflexus [6]): 100%
Herbicidal activity ECHCG (ECHCG [17]): 90%
Herbicidal efficacy against CYPES (Cyperus serotinus; dosage 80 g/ha, Table L): 80
herbicidal activity CYPES (Cyperus serotinus): 90%
Herbicidal activity STEME (Stellaria media [7]): 100%
herbicidal activity SETVI (Setaria viridis [18]; 80 g/ha, Table C): 100%
Herbicidal efficacy against SETVI (Setaria viridis [18]; dosage 20 g/ha, Table M): 100
herbicidal activity ABUTH (Abutilon theophrasti [8]): 100%
Herbicidal efficacy against AVEFA (Avena fatua [9]; dosage 80 g/ha, Table L): 70
herbicidal activity AVEFA (Avena fatua [9]; [27]): 90%
herbicidal activity ABUTH (Abutilon theophrasti [10]): 100%
Herbicidal efficacy against VERPE (Veronica persica [11]; dosage 20 g/ha, Table M): 100
Herbicidal efficacy against LOLMU (LOLMU): 10
Herbicidal activity PHBPU (Pharbitis purpureum): 90%
herbicidal activity VIOTR (Viola tricolor [13]; 80 g/ha): 100%
Herbicidal efficacy against VIOTR (Viola tricolor [13]; dosage 20 g/ha, Table M): 100
Herbicidal efficacy against VIOTR (Viola tricolor [14]; dosage 80 g/ha, Table L): 100
herbicidal activity VIOTR (Viola tricolor [14]): 100%
Herbicidal activity STEME (Stellaria media [15]): 80%

Reference: US20230183193A1, “4-DIFLUOROMETHYL BENZOYL AMIDES WITH HERBICIDAL ACTION” (BAYER CROPSCIENCE AKTIENGESELLSCHAFT, priority 2017, published 2023)
